Measurements from ChEMBL document CHEMBL4138122, “Azaphenothiazines - promising phenothiazine derivatives. An insight into nomenclature, synthesis, structure elucidation and biological properties” (Eur J Med Chem, 2017).
Converted amounts (≈) assume the structure as drawn.

Key:
[1] = molecular target: Intercellular adhesion molecule 1 (Homo sapiens, UniProt P05362); assay: Inhibition of ICAM1 (unknown origin)
Bacillus subtilis = assay: Antibacterial activity against Bacillus subtilis; format: functional
Staphylococcus aureus = assay: Antibacterial activity against Staphylococcus aureus; format: functional
Escherichia coli = assay: Antibacterial activity against Escherichia coli; format: functional
Mus musculus = assay: Anti-inflammatory activity in IL1-induced paw inflammation Balb/c mouse model assessed as inhibition of neutrophil migration at 10 mg/kg, po, pretreated for 30 mins followed by IL1 challenge measured after 2 hrs by spectrophotometric method; format: functional
MCF7 = assay: Cytotoxicity against human MCF7 cells; format: functional, cell-based
MDA-MB-231 = assay: Cytotoxicity against human MDA-MB-231 cells; format: functional, cell-based
Rattus norvegicus = assay: Analgesic activity in Sprague-Dawley rat assessed as reduction in phenylbenzoquinone-induced number of writhes at 20 mg/kg, sc incubated for 60 mins; format: functional; set-up: scale not given: the % may be the effect or the level left
C32 = assay: Cytotoxicity against human C32 cells; format: functional, cell-based
Bacillus cereus = assay: Antibacterial activity against Bacillus cereus; format: functional, organism-based
Liver = assay: Antioxidant activity in rat liver microsomal membranes assessed as inhibition of Fe(2+)/ascorbate-induced lipid peroxidation; format: functional, microsomes, microsome
[2] = Inhibition of LTB4 formation in rat polymorphonuclear leukocytes preincubated for 2 mins followed by A-23187 addition after 4 mins; format: functional, cell-based
[3] = Displacement of [3H]-diazepam from benzodiazepine receptor in rat brain membranes after 30 mins; format: cell membranes, Membrane
T47D = assay: Cytotoxicity against human T47D cells; format: functional, cell-based
SNB-19 = assay: Cytotoxicity against human SNB19 cells; format: functional, cell-based
PBMC = assay: Cytotoxicity in human PBMCs assessed as reduction in cel viability at 50 ug/ml; format: cell-based

Chain of Intercellular adhesion molecule 1 (P05362 whole entry): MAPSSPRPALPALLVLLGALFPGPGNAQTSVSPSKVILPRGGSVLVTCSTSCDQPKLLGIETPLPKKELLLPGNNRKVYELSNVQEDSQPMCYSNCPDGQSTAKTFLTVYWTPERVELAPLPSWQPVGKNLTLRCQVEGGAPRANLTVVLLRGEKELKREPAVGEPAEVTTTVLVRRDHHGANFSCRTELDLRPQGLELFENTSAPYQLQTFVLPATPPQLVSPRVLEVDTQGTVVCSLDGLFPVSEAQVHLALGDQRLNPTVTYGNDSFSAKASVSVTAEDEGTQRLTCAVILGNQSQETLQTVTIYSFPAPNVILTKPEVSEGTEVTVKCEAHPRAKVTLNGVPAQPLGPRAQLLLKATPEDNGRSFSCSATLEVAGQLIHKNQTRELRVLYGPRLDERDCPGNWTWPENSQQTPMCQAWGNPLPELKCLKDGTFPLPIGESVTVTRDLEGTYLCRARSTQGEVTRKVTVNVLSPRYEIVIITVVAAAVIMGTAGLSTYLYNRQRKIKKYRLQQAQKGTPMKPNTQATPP

## NC(=O)C1CCN(Cc2ccc3c(c2)Nc2nccnc2S3)CC1
[1]
  IC50: 0.27 to 1.4 µM

## O=[N+]([O-])c1cnc2c(c1)Sc1cccc(Br)c1N2
Bacillus subtilis
  inhibition zone (IZ): 8 - 12 mm
Staphylococcus aureus
  inhibition zone (IZ): 8 - 15 mm
Escherichia coli
  inhibition zone (IZ): 7 - 12 mm

## O=S(=O)(NC1CCN(Cc2ccc3c(c2)Nc2nccnc2S3)CC1)N1CCOCC1
[1]
  IC50: 0.27 to 1.4 µM
Mus musculus
  inhibition in vivo at 10 mg/kg: 66.1%

## O=C(O)C1CCN(Cc2ccc3c(c2)Nc2nccnc2S3)CC1
[1]
  IC50: 0.42 to 1 µM

## NS(=O)(=O)NC1CCN(Cc2ccc3c(c2)Nc2nccnc2S3)CC1
[1]
  IC50: 0.27 to 1.4 µM

## c1cnc2c(n1)Nc1cc(CN3CCCCCCC3)ccc1S2
[1]
  IC50: 0.27 to 1.4 µM

## CN1CCCCC1CCN1c2ccncc2Sc2ncccc21 (stereo unspecified)
MCF7
  IC50: 28.4 to 32.9 mg/L (≈ 87 to 101 µM)

## Cn1c(=O)c2c(c3ccccc31)Nc1ccccc1S2
Staphylococcus aureus
  MIC: >=200 ug

## c1cnc(N2c3ccncc3Sc3ncccc32)nc1
MCF7
  IC50: 0.73 mg/L (≈ 2.61 µM)

## CC(=O)N1CCN(Cc2ccc3c(c2)Nc2nccnc2S3)CC1
[1]
  IC50: 0.27 to 1.4 µM

## CN(C)CCCN1c2ccc(F)cc2Sc2cnc3ccccc3c21
MDA-MB-231
  IC50: 7.43 mg/L (≈ 21 µM)
MCF7
  IC50: 7.91 mg/L (≈ 22.4 µM)

## O=C(O)C(=O)O.c1ccc2c(c1)Sc1cnccc1N2CCCN1CCOCC1
Rattus norvegicus
  Activity: 59 - 86%

## O=C(O)C(=O)O.c1ccc2c(c1)Sc1cnccc1N2CCCN1CCCC1
Rattus norvegicus
  Activity: 59 - 86%

## c1cnc2c(n1)Nc1cc(CN3CCC3)ccc1S2
[1]
  IC50: 0.27 to 1.4 µM

## CCN(CC)CC#CCN1c2ccncc2Sc2ccncc21
C32
  IC50: 24.8 to 29.2 mg/L (≈ 76.4 to 90 µM)

## COc1ccc2c(n1)Sc1c3c(c4ccccc4c1=N2)=Nc1c(N)ncnc1O3
Bacillus cereus
  MIC: 77.1 mg/L (≈ 193 µM)
Escherichia coli; Escherichia coli
  MIC: 87.1 to 97.1 mg/L (≈ 218 to 242 µM)

## O=[N+]([O-])c1ccc(N2c3ccncc3Sc3ccncc32)c([N+](=O)[O-])c1
Liver
  IC50: 107 µM

## COc1ccc2c(c1Cl)Sc1nccnc1N2C
[2]
  IC50: 1 to 5 mg/L (≈ 3.57 to 17.9 µM)

## O=S(=O)(NC1CCN(Cc2ccc3c(c2)Nc2nccnc2S3)CC1)C(F)(F)F
[1]
  IC50: 0.27 to 1.4 µM

## O=[N+]([O-])c1cnc2c(c1)Sc1cccc(Cl)c1N2
Bacillus subtilis
  inhibition zone (IZ): 12 mm
Staphylococcus aureus
  inhibition zone (IZ): 8 - 15 mm
Escherichia coli
  inhibition zone (IZ): 7 - 12 mm

## O=[N+]([O-])c1cnc2c(c1)Sc1cc(Br)ccc1N2
Bacillus subtilis
  inhibition zone (IZ): 8 - 12 mm
Staphylococcus aureus
  inhibition zone (IZ): 15 mm
Escherichia coli
  inhibition zone (IZ): 7 - 12 mm

## Clc1ccc2c(c1)Sc1cc3ccccc3nc1N2
Liver
  IC50: 2 to 3 mg/L

## N#Cc1c2c(c[nH]c1=O)Sc1ccc(N)cc1N2
[3]
  IC50: 0.31 to 0.91 µM

## CCN(C)CC#CCN1c2cnccc2Sc2cccnc21
C32
  IC50: 26.1 to 27.5 mg/L (≈ 84.1 to 88.6 µM)
T47D
  IC50: 26.1 to 27.5 mg/L (≈ 84.1 to 88.6 µM)
SNB-19
  IC50: 26.1 to 27.5 mg/L (≈ 84.1 to 88.6 µM)
PBMC
  Activity: <= 22%

## CN(C)CCCN1c2ccncc2Sc2ncccc21
C32
  IC50: 6.3 mg/L (≈ 22 µM)
MCF7
  IC50: 11.3 mg/L (≈ 39.5 µM)

## C#CCN1c2cccc(C(F)(F)F)c2Sc2cnc3ccccc3c21
MDA-MB-231
  IC50: 7.71 mg/L (≈ 21.6 µM)

## C#CCN1c2ccncc2Sc2ncccc21
MCF7
  IC50: 28.4 to 32.9 mg/L (≈ 119 to 137 µM)

## CCn1c(=O)c2c(c3ccccc31)Nc1ccccc1S2
Staphylococcus aureus
  MIC: >=200 ug

## COc1ccc2c(c1)Sc1c[n+](C)c3ccccc3c1N2.[Cl-]
MDA-MB-231
  IC50: 0.5 to 12 mg/L
C32
  IC50: 0.5 to 7.5 mg/L
SNB-19
  IC50: 0.7 to 11.5 mg/L

## FC(F)(F)c1cccc2c1Sc1cnc3ccccc3c1N2
MCF7
  IC50: 9.76 mg/L (≈ 30.7 µM)
SNB-19
  IC50: 10 mg/L (≈ 31.4 µM)

## CN(C)S(=O)(=O)N1CCN(Cc2ccc3c(c2)Nc2nccnc2S3)CC1
[1]
  IC50: 0.27 to 1.4 µM

## C[n+]1cc2c(c3ccccc31)Nc1ccc(N3CCCCC3)cc1S2.[Cl-]
MDA-MB-231
  IC50: 0.5 to 12 mg/L
C32
  IC50: 0.5 to 7.5 mg/L
SNB-19
  IC50: 0.7 to 11.5 mg/L

## CN1c2ccccc2Sc2nccnc21
[2]
  IC50: 1 to 5 mg/L (≈ 4.65 to 23.2 µM)

## O=S(=O)(NC1CCN(Cc2ccc3c(c2)Nc2nccnc2S3)CC1)N1CCCCC1
[1]
  IC50: 0.27 to 1.4 µM

## O=[N+]([O-])c1cnc2c(c1)Sc1cc(Cl)ccc1N2
Bacillus subtilis
  inhibition zone (IZ): 8 - 12 mm
Staphylococcus aureus
  inhibition zone (IZ): 8 - 15 mm
Escherichia coli
  inhibition zone (IZ): 12 mm

## NC(=O)C1CCCN(Cc2ccc3c(c2)Nc2nccnc2S3)C1 (stereo unspecified)
[1]
  IC50: 0.27 to 1.4 µM

## CCN(CC)CC#CCN1c2cnccc2Sc2cccnc21
C32
  IC50: 26.1 to 27.5 mg/L (≈ 80.4 to 84.8 µM)
T47D
  IC50: 26.1 to 27.5 mg/L (≈ 80.4 to 84.8 µM)
SNB-19
  IC50: 26.1 to 27.5 mg/L (≈ 80.4 to 84.8 µM)
PBMC
  Activity: <= 22%

## c1cnc2c(n1)Nc1cc(CN3CCCCCC3)ccc1S2
[1]
  IC50: 0.27 to 1.4 µM

## NS(=O)(=O)N1CCN(Cc2ccc3c(c2)Nc2nccnc2S3)CC1
[1]
  IC50: 0.27 to 1.4 µM

## N#Cc1c(O)ncc2c1Nc1ccc(Cl)cc1S2
[3]
  IC50: 0.31 to 0.91 µM

## c1ccc2c3c(cnc2c1)Nc1cnc2ccccc2c1S3
Liver
  IC50: 1 µM

## CN1CCN(CC#CCN2c3ccncc3Sc3ccncc32)CC1
C32
  IC50: 24.8 to 29.2 mg/L (≈ 70.6 to 83.1 µM)
T47D
  IC50: 9.6 mg/L (≈ 27.3 µM)
SNB-19
  IC50: 21.2 mg/L (≈ 60.3 µM)

## C=CCN1c2ccncc2Sc2ncccc21
MCF7
  IC50: 28.4 to 32.9 mg/L (≈ 118 to 136 µM)

## C[n+]1cc2c(c3ccccc31)Nc1ccc(N3CCNCC3)cc1S2.[Cl-]
MDA-MB-231
  IC50: 0.5 to 12 mg/L
C32
  IC50: 0.5 to 7.5 mg/L
SNB-19
  IC50: 0.7 to 11.5 mg/L

## CN(C)CCCOc1ccc2c(c1)Nc1c(c[n+](C)c3ccccc13)S2.[Cl-]
MDA-MB-231
  IC50: ≤ 3 mg/L
C32
  IC50: ≤ 3 mg/L
T47D
  IC50: ≤ 3 mg/L
SNB-19
  IC50: ≤ 3 mg/L

## O=S(=O)(NC1CCN(Cc2ccc3c(c2)Nc2nccnc2S3)CC1)c1ccccc1
[1]
  IC50: 0.27 to 1.4 µM
